# Results taken from ChEMBL document CHEMBL5543150, “Design, Synthesis, and Pharmacological Evaluation of Spiro[carbazole-3,3'-pyrrolidine] Derivatives as cGAS Inhibitors for Treatment of Acute Lung Injury” (J Med Chem, 2024).
# Where “and” joins values, the source holds several entries; their conditions need not be identical. Equal values may be shown once.
# Key:
# Cyclic GMP-AMP synthase [1] = biological target: T1, Cyclic GMP-AMP synthase (Homo sapiens, UniProt Q8N884); assay: Binding affinity to human cGAS assessed as dissociation constant measured upto 240 secs by surface plasmon resonance assay
# T1 sequence (Q8N884 whole entry): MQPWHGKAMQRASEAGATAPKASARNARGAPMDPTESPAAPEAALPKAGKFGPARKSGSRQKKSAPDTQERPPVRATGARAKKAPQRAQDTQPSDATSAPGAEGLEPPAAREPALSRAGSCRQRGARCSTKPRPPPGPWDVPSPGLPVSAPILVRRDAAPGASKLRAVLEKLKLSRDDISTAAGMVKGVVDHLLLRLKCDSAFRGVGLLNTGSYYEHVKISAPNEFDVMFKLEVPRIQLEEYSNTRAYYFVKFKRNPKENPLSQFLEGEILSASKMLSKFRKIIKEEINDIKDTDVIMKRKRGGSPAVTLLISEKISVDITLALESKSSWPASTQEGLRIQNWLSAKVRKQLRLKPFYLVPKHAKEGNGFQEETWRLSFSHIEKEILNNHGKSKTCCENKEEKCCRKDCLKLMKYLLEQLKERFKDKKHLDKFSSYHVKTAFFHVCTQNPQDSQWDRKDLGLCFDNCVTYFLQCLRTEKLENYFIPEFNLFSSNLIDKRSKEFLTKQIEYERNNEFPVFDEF
# Cyclic GMP-AMP synthase [2] = biological target: T1, Cyclic GMP-AMP synthase; assay: Inhibition of cGAS in human THP1-Dual cells preincubated for 1 hr followed by cGAMP addition and measured after 24 hrs by luminescence based QUANTI-Luc assay
# Cyclic GMP-AMP synthase [3] = biological target: T2, Cyclic GMP-AMP synthase (Mus musculus, UniProt Q8C6L5); assay: Inhibition of cGAS in mouse RAW-Lucia ISG cells preincubated for 1 hr followed by cGAMP addition and measured after 24 hrs by luminescence based QUANTI-Luc assay
# T2 sequence (Q8C6L5 whole entry): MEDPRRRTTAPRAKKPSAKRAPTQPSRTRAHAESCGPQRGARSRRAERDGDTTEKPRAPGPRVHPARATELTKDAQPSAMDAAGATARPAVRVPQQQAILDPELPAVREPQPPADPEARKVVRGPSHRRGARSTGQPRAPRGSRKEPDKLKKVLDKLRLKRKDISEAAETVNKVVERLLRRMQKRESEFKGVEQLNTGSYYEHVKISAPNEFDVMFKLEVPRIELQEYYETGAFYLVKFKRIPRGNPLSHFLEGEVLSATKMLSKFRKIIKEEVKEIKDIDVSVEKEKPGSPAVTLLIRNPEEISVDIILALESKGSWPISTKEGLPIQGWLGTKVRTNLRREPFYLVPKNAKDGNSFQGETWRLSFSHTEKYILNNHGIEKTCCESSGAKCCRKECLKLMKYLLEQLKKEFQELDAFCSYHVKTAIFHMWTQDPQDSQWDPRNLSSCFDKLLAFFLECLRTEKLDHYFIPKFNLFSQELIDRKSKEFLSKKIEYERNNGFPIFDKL
# Cyclic GMP-AMP synthase [4] = biological target: T2, Cyclic GMP-AMP synthase; assay: Inhibition of cGAS in dsDNA activated mouse RAW-Lucia ISG cells preincubated for 1 hr followed by cGAMP addition and measured after 24 hrs by luminescence based QUANTI-Luc assay
# [5] = Cytotoxicity against mouse RAW-Lucia ISG cells incubated for 24 hrs by CCK-8 method
# Cyclic GMP-AMP synthase [6] = biological target: T1, Cyclic GMP-AMP synthase; assay: Inhibition of full length recombinant human cGAS expressed in Escherichia coli BL21 (DE3) incubated for 7 hrs by Kinase-glo max luminescent kinase assay
# [7] = Half life in rat at 1 mg/kg, iv; conditions: in vivo
# [8] = MRT last in rat at 1 mg/kg, iv; conditions: in vivo
# [9] = Volume of distribution at steady state in rat at 1 mg/kg, iv; conditions: in vivo
# [10] = Half life in rat at 3 mg/kg, po; conditions: in vivo
# [11] = MRT last in rat at 3 mg/kg, po; conditions: in vivo
# Cyclic GMP-AMP synthase [12] = biological target: T1, Cyclic GMP-AMP synthase; assay: Inhibition of cGAS in dsDNA stimulated human THP-1 cells assessed as inhibition of IFNB1 mRNA level by qRT-PCR analysis
# in vivo [13] = conditions: rat, iv, 1 mg/kg
# in vivo [14] = conditions: rat, iv, 1 mg/kg; remark: listed apart in the source
# in vivo [15] = conditions: rat, po, 3 mg/kg
# Description: Tmax in rat at 3 mg/kg, po
# in vivo [16] = conditions: rat, po, 3 mg/kg; remark: listed apart in the source
# Description: Cmax in rat at 3 mg/kg, po
# in vivo [17] = conditions: rat, po, 3 mg/kg; remark: listed apart in the source
# Description: AUC last in rat at 3 mg/kg, po
# in vivo [18] = conditions: rat, po, 3 mg/kg; remark: listed apart in the source
# Description: Oral bioavailability in rat at 3 mg/kg
# THP1-Dual = assay: Cytotoxicity against human THP1-Dual cells incubated for 24 hrs by CCK-8 method
# Cyclic GMP-AMP synthase [19] = biological target: T1, Cyclic GMP-AMP synthase; assay: Inhibition of cGAS in dsDNA activated human THP1-Dual cells preincubated for 1 hr followed by cGAMP addition and measured after 24 hrs by luminescence based QUANTI-Luc assay
# Cyclic GMP-AMP synthase [20] = biological target: T1, Cyclic GMP-AMP synthase; assay: Inhibition of human cGas incubated for 120 mins
# Cyclic GMP-AMP synthase [21] = biological target: T2, Cyclic GMP-AMP synthase; assay: Inhibition of mouse cGas incubated for 120 mins
# Cyclic GMP-AMP synthase [22] = biological target: T2, Cyclic GMP-AMP synthase
SMILES,IC50 (Cyclic GMP-AMP synthase [2]) [µM],CC50 (THP1-Dual) [µM],other results
Cn1ccc(-c2cc(Cl)c(Cl)c3[nH]c4c(c23)CC2(CC4)CCN(C(=O)CO)CC2)n1,12.9,> 50,
O=C(CO)N1CCC2(CCc3[nH]c4c(Cl)c(Cl)cc(-c5ccc(C(F)(F)F)nc5)c4c3C2)C1 (stereo not given),8.66,31.7,
C[C@@H](O)C(=O)N1CCC2(CCc3[nH]c4c(Cl)c(Cl)cc(-c5ccnc(C(F)(F)F)c5)c4c3C2)C1 (stereo not given in full),17.6,39.1,
O=C(CO)N1CCC2(CCc3[nH]c4c(Cl)c(Cl)cc(-c5ccnc(C(F)(F)F)c5)c4c3C2)C1 (stereo not given),4.45,34,IC50 (Cyclic GMP-AMP synthase [3]): 11.4 µM; IC50 (Cyclic GMP-AMP synthase [19]): 4.45 µM; IC50 (Cyclic GMP-AMP synthase [4]): 11.4 µM; half-life [7]: 3.36 h; MRT last [8]: 3.59 h; Vd [9]: 4.48 L/kg; half-life [10]: 1.82 h; MRT last [11]: 2.99 h; AUC(0-t) (in vivo [13]): 1070 ng·h/mL; clearance (in vivo [14]): 15.5 mL/min/kg; Tmax (in vivo [15]): 0.667 h; Cmax (in vivo [16]): 223 ng/mL; AUC(0-t) (in vivo [17]): 920 ng·h/mL; bioavailability (in vivo [18]): 30%
O=C(CO)N1CCC2(CCc3[nH]c4c(Cl)c(Cl)cc(-c5cnc(C(F)(F)F)nc5)c4c3C2)C1 (stereo not given),7.54,34,IC50 (Cyclic GMP-AMP synthase [19]): 7.54 µM
Cn1ccc(-c2cc(Cl)c(Cl)c3[nH]c4c(c23)CC2(CCN(C(=O)CO)CC2)C4)n1,37.4,> 50,
C[C@H](O)[C@@H](N)C(=O)N1CCC2(CCc3[nH]c4c(Cl)c(Cl)cc(-c5ccnc(C(F)(F)F)c5)c4c3C2)C1 (stereo not given in full),11,30.3,
NCC(=O)N1CCC2(CCc3[nH]c4c(Cl)c(Cl)cc(-c5ccnc(C(F)(F)F)c5)c4c3C2)C1 (stereo not given),3.41,11.1,
O=C(CO)N1CCC2(CCc3[nH]c4c(Cl)c(Cl)cc(-c5ccc(F)nc5F)c4c3C2)C1 (stereo not given),7.15,33.4,
Cn1nc(C(F)(F)F)cc1-c1cc(Cl)c(Cl)c2[nH]c3c(c12)CC1(CC3)CCN(C(=O)CO)C1 (stereo not given),5.82,17.3,
Nc1ccc(-c2cc(Cl)c(Cl)c3[nH]c4c(c23)CC2(CC4)CCN(C(=O)CO)C2)cn1 (stereo not given),8.04,47.8,IC50 (Cyclic GMP-AMP synthase [19]): 8.04 µM
O=C(CO)N1CCC2(CCc3[nH]c4c(Cl)c(Cl)cc(-c5cnn(C(F)F)c5)c4c3C2)C1 (stereo not given),5.8,37.7,IC50 (Cyclic GMP-AMP synthase [3]): 8.69 µM; IC50 (Cyclic GMP-AMP synthase [19]): 5.8 µM; IC50 (Cyclic GMP-AMP synthase [4]): 8.69 µM
Cn1ncc(-c2cc(Cl)c(Cl)c3[nH]c4c(c23)CC2(CC4)CCN(C(=O)CO)C2)n1 (stereo not given),10.5,26.3,
C[C@H](O)C(=O)N1CCC2(CCc3[nH]c4c(Cl)c(Cl)cc(-c5ccnc(C(F)(F)F)c5)c4c3C2)C1 (stereo not given in full),38.8,12.7,
Cc1nn(-c2cc3ccc(Cl)c(Cl)c3[nH]2)c(O)c1C1OC(=O)c2ccccc21 (stereo not given),,,IC50 (Cyclic GMP-AMP synthase [20]): 0.11 µM; IC50 (Cyclic GMP-AMP synthase [21]): 2.94 µM
CC(C)=C(C#N)C(=O)N1CCC2(CCc3[nH]c4c(Cl)c(Cl)cc(-c5ccnc(C(F)(F)F)c5)c4c3C2)C1 (stereo not given),8.46,45.1,
C#CC(=O)N1CCn2cccc2C1c1ccccc1 (stereo not given),,,IC50 (Cyclic GMP-AMP synthase [22]): 0.97 µM

# Now from value to compound, other results behind:
IC50 (Cyclic GMP-AMP synthase [2]) [µM],SMILES,CC50 (THP1-Dual) [µM],other results
4.82,Cn1ccc(-c2cc(Cl)c(Cl)c3[nH]c4c(c23)CN(C(=O)CO)CC4)n1,,Kd (Cyclic GMP-AMP synthase [1]): 0.053 µM; IC50 (Cyclic GMP-AMP synthase [3]): 14.6 µM and > 10 µM; IC50 (Cyclic GMP-AMP synthase [4]): 14.6 µM; CC50 [5]: 51.8 µM; IC50 (Cyclic GMP-AMP synthase [6]): 0.051 µM; half-life [7]: 1.03 h; MRT last [8]: 1.5 h; Vd [9]: 1.88 L/kg; half-life [10]: 1.31 h; MRT last [11]: 3.56 h; IC50 (Cyclic GMP-AMP synthase [12]): 1.7 µM; AUC(0-t) (in vivo [13]): 792 ng·h/mL; clearance (in vivo [14]): 20.7 mL/min/kg; Tmax (in vivo [15]): 2.67 h; Cmax (in vivo [16]): 375 ng/mL; AUC(0-t) (in vivo [17]): 1520 ng·h/mL; bioavailability (in vivo [18]): 64.1%
6.27,O=C(CO)N1CCC2(CCc3[nH]c4c(Cl)c(Cl)cc(-c5ccnc(F)c5)c4c3C2)C1 (stereo not given),13.6,
6.41,O=C(CO)N1CCC2(CCc3[nH]c4c(Cl)c(Cl)cc(-c5ccnc(OC(F)F)c5)c4c3C2)C1 (stereo not given),13.2,
24.7,Cn1cc(-c2cc(Cl)c(Cl)c3[nH]c4c(c23)CC2(CC4)CCN(C(=O)CO)C2)cn1 (stereo not given),> 50,
12.9,O=C(CO)N1CCC2(CCc3[nH]c4c(Cl)c(Cl)cc(-c5cnn(C6CCNCC6)c5)c4c3C2)C1 (stereo not given),> 50,
36,Cn1ccc(-c2cc(Cl)c(Cl)c3[nH]c4c(c23)CC2(CC4)CN(C(=O)CO)C2)n1,17.7,
> 50,Cn1ccc(-c2cc(Cl)c(Cl)c3c2[C@@H]2CN(C(=O)CO)CC[C@@H]2N3)n1,> 50,
> 50,Cn1ccc(-c2cc(Cl)c(Cl)c3[nH]c4c(c23)CC(NC(=O)CO)CC4)n1 (stereo not given),> 50,
7.65,Cn1ccc(-c2cc(Cl)c(Cl)c3[nH]c4c(c23)CC2(CC4)CCN(C(=O)CO)C2)n1 (stereo not given),> 50,IC50 (Cyclic GMP-AMP synthase [3]): 8.91 µM; IC50 (Cyclic GMP-AMP synthase [19]): 7.65 µM; IC50 (Cyclic GMP-AMP synthase [4]): 8.91 µM
9.48,CS(=O)(=O)CC(=O)N1CCC2(CCc3[nH]c4c(Cl)c(Cl)cc(-c5ccnc(C(F)(F)F)c5)c4c3C2)C1 (stereo not given),10.4,
6.35,N#Cc1cc(-c2cc(Cl)c(Cl)c3[nH]c4c(c23)CC2(CC4)CCN(C(=O)CO)C2)ccn1 (stereo not given),10.3,
6.45,Nc1cc(-c2cc(Cl)c(Cl)c3[nH]c4c(c23)CC2(CC4)CCN(C(=O)CO)C2)ccn1 (stereo not given),> 50,IC50 (Cyclic GMP-AMP synthase [3]): 4.71 µM; IC50 (Cyclic GMP-AMP synthase [19]): 6.45 µM; IC50 (Cyclic GMP-AMP synthase [4]): 4.71 µM
6.94,C[C@@H](N)C(=O)N1CCC2(CCc3[nH]c4c(Cl)c(Cl)cc(-c5ccnc(C(F)(F)F)c5)c4c3C2)C1 (stereo not given in full),7.08,
5.86,O=C(CO)N1CCC2(CCc3[nH]c4c(Cl)c(Cl)cc(-c5cn[nH]c5)c4c3C2)C1 (stereo not given),13.7,
6.43,O=C(CO)N1CCC2(CCc3[nH]c4c(Cl)c(Cl)cc(-c5ccnc(C(F)F)c5)c4c3C2)C1 (stereo not given),10.6,
4.3,C[C@H](N)C(=O)N1CCC2(CCc3[nH]c4c(Cl)c(Cl)cc(-c5ccnc(C(F)(F)F)c5)c4c3C2)C1 (stereo not given in full),16.4,
7.82,N#Cc1ncc(-c2cc(Cl)c(Cl)c3[nH]c4c(c23)CC2(CC4)CCN(C(=O)CO)C2)cc1F (stereo not given),33.1,
4.26,O=C(CO)N1CCC2(CCc3[nH]c4c(Cl)c(Cl)cc(-c5ccnc(C(F)(F)F)n5)c4c3C2)C1 (stereo not given),14.4,
